According to ChEMBL document CHEMBL1156473, “Crystal structure of human estrogen-related receptor alpha in complex with a synthetic inverse agonist reveals its novel molecular mechanism” (J Biol Chem, 2007):

Experiments:
[1] = molecular target: T1, Steroid hormone receptor ERR1 (Homo sapiens, UniProt P11474); assay: Binding affinity to ERRalpha ligand binding domain by FRET assay
T1 sequence (P11474 whole entry): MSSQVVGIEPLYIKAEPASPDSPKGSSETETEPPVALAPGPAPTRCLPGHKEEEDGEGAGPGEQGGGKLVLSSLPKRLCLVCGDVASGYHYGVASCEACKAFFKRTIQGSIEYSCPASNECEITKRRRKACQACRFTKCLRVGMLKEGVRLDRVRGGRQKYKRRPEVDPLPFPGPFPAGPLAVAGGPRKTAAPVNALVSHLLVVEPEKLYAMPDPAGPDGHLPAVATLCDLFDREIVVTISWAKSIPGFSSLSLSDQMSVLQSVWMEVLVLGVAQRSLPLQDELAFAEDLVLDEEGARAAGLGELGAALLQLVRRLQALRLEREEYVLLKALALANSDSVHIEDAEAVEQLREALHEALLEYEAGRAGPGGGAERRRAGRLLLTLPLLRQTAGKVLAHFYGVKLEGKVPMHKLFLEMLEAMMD

[2] = molecular target: T1, Steroid hormone receptor ERR1; assay: Binding affinity to wild type ERRalpha ligand binding domain by isothermal titration calorimetry
[3] = Binding affinity to ERRalpha C325S mutant ligand binding domain expressed in sf9 cells by isothermal titration calorimetry

IC50 [1]: 700 nM | Kd [2]: 770 nM
Structure (SMILES): c1ccc(-n2cc(CNCC3CCCCC3)c3ccccc32)cc1
Kd [3]: 930 nM
